# Assays:
# [1] = test system: MCF7; assay: Estrogenic activity in human MCF7 cells assessed as cell proliferation at 1 uM by MTS assay relative to basal level; format: ADME, cell-based; conditions: mcf7, 1 µM
# [2] = test system: MCF7; assay: Estrogenic activity in human MCF7 cells assessed as cell proliferation at 0.1 uM by MTS assay relative to basal level; format: ADME, cell-based; conditions: mcf7, 0.1 µM
# [3] = test system: MCF7; assay: Estrogenic activity in human MCF7 cells assessed as cell proliferation at 0.01 uM by MTS assay relative to basal level; format: ADME, cell-based; conditions: mcf7, 0.01 µM
# [4] = biological target: T1, Steryl-sulfatase (Homo sapiens) (UniProt P08842); assay: Inhibition of STS (unknown origin) expressed in HEK-293 cells assessed as transformation of [3H]-E1S into E1 at 1 uM by […]; format: cell-based; conditions: HEK293
# T1 sequence (whole entry): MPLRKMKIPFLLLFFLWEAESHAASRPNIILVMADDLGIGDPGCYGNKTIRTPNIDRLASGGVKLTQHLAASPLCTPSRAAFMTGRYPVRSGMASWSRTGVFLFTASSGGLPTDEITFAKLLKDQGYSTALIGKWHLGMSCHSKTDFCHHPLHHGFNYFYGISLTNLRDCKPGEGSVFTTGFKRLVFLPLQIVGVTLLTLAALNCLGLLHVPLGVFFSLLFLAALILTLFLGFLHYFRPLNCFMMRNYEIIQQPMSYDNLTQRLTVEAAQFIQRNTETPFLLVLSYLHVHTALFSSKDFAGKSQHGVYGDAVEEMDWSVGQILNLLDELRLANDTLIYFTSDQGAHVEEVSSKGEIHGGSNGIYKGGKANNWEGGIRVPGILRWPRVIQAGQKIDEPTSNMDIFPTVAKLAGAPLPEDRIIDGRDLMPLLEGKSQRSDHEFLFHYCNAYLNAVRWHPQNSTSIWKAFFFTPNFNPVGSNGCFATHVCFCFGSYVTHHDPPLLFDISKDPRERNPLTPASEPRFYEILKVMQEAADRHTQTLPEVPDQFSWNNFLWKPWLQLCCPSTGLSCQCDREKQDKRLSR
# [5] = biological target: T1, Steryl-sulfatase (Homo sapiens); assay: Inhibition of STS (unknown origin) expressed in HEK-293 cells assessed as transformation of [3H]-E1S into E1 at 0.1 uM by […]; format: cell-based; conditions: HEK293
Structure (SMILES),inhibition [4] [%],inhibition [5] [%],Activity [1] [%],Activity [2] [%],Activity [3] [%]
CCN(Cc1cccc(Br)c1)c1cccc(C(=O)N2CCc3ccc(O)cc3C2)c1,–,–,8.5,0,0
CCN(Cc1ccc(F)cc1)c1cccc(C(=O)N2CCc3ccc(O)cc3C2)c1,–,–,101.3,31.9,9.5
NS(=O)(=O)Oc1ccc2c(c1)CN(C(=O)c1ccc(N3CCN(Cc4ccccc4)CC3)cc1)CC2,75.8,20.8,–,–,–
CN(C)CCN(Cc1ccccc1)c1cccc(C(=O)N2CCc3ccc(O)cc3C2)c1,–,–,30.5,7.4,4.1
O=C(c1cccc(N2CCc3ccccc3C2)c1)N1CCc2ccc(O)cc2C1,–,–,14.7,0,0
CCN(Cc1cccc(Br)c1)c1ccc(C(=O)N2CCc3ccc(O)cc3C2)cc1,–,–,18.3,0,1.8
CCN(Cc1cccnc1)c1cccc(C(=O)N2CCc3ccc(O)cc3C2)c1,–,–,0,0,0
CN(CCN1CCCCC1)c1cccc(C(=O)N2CCc3ccc(O)cc3C2)c1,–,–,5.3,0,0
CN(CCCN1CCCCC1)c1cccc(C(=O)N2CCc3ccc(O)cc3C2)c1,–,–,19,2.5,2.9
CCN(Cc1ccc(Br)cc1)c1ccc(C(=O)N2CCc3ccc(O)cc3C2)cc1,–,–,76.7,10.6,0
CCN(Cc1ccc(Br)cc1)c1ccc(C(=O)N2CCc3ccc(OS(N)(=O)=O)cc3C2)cc1,95.9,78.2,–,–,–
NS(=O)(=O)Oc1ccc2c(c1)CN(C(=O)c1ccc(N3CCN(c4ncccn4)CC3)cc1)CC2,41.9,14.7,–,–,–
NS(=O)(=O)Oc1ccc2c(c1)CN(C(=O)c1cccc(N3CCN(Cc4ccccc4)CC3)c1)CC2,23.7,0,–,–,–
NS(=O)(=O)Oc1ccc2c(c1)CN(C(=O)c1ccc(N3CCc4ccccc4C3)cc1)CC2,83,56,–,–,–
NS(=O)(=O)Oc1ccc2c(c1)CN(C(=O)c1cccc(N3CCC(N4CCCCC4)CC3)c1)CC2,8,0,–,–,–
NS(=O)(=O)Oc1ccc2c(c1)CN(C(=O)c1ccc(N3CCC(N4CCCCC4)CC3)cc1)CC2,53.7,8.5,–,–,–
NS(=O)(=O)Oc1ccc2c(c1)CN(C(=O)c1ccc(N(Cc3ccccc3)Cc3ccco3)cc1)CC2,98.2,90.8,–,–,–
CCN(Cc1ccccc1)Cc1ccc(S(=O)(=O)N2CCc3ccc(OS(N)(=O)=O)cc3C2)cc1,31,10,–,–,–
CN1CCN(c2ccc(C(=O)N3CCc4ccc(OS(N)(=O)=O)cc4C3)cc2)CC1,23.3,2.9,–,–,–
NS(=O)(=O)Oc1ccc2c(c1)CN(C(=O)c1ccc(N3CCCCC3)cc1)CC2,38.3,11.5,–,–,–
CCN(Cc1ccccc1)Cc1ccc(CN2CCc3ccc(OS(N)(=O)=O)cc3C2)cc1,17,1,–,–,–
NS(=O)(=O)Oc1ccc2c(c1)CN(C(=O)c1cccc(N3CCN(c4ncccn4)CC3)c1)CC2,24.4,1.6,–,–,–
NS(=O)(=O)Oc1ccc2c(c1)CN(C(=O)c1ccc(N3CCSCC3)cc1)CC2,80.2,32.3,–,–,–
NS(=O)(=O)Oc1ccc2c(c1)CN(C(=O)c1cccc(N3CCC(Cc4ccccc4)CC3)c1)CC2,41.9,1.4,–,–,–
CCN(Cc1ccc(F)cc1)c1ccc(C(=O)N2CCc3ccc(OS(N)(=O)=O)cc3C2)cc1,91.2,69.1,–,–,–
CCN(Cc1ccncc1)c1ccc(C(=O)N2CCc3ccc(OS(N)(=O)=O)cc3C2)cc1,86.6,47,–,–,–
NS(=O)(=O)Oc1ccc2c(c1)CN(C(=O)c1ccc(N3CCOCC3)cc1)CC2,50.6,10.9,–,–,–
NS(=O)(=O)Oc1ccc2c(c1)CN(C(=O)c1cccc(N3CCc4ccccc4C3)c1)CC2,50.2,24.1,–,–,–

# Now from value to compound, other results behind:
inhibition [4] [%],inhibition [5] [%],Structure (SMILES),Activity [1] [%],Activity [2] [%],Activity [3] [%]
33.5,14.3,CCN(Cc1cccnc1)c1cccc(C(=O)N2CCc3ccc(OS(N)(=O)=O)cc3C2)c1,–,–,–
17.1,0,CN(C)CCN(CCN(C)C)c1cccc(C(=O)N2CCc3ccc(OS(N)(=O)=O)cc3C2)c1,–,–,–
54.8,8.3,CCCN(CCC)c1cccc(C(=O)N2CCc3ccc(OS(N)(=O)=O)cc3C2)c1,–,–,–
30.6,24.1,CN(CCCN1CCCCC1)c1cccc(C(=O)N2CCc3ccc(OS(N)(=O)=O)cc3C2)c1,–,–,–
57.8,13.9,CN(C)CCN(Cc1ccccc1)c1ccc(C(=O)N2CCc3ccc(OS(N)(=O)=O)cc3C2)cc1,–,–,–
67.4,23.1,CCCN(Cc1ccccc1)c1cccc(C(=O)N2CCc3ccc(OS(N)(=O)=O)cc3C2)c1,–,–,–
84.5,24.2,CCN(Cc1ccc(Br)cc1)c1cccc(C(=O)N2CCc3ccc(OS(N)(=O)=O)cc3C2)c1,–,–,–
11.9,1,NS(=O)(=O)Oc1ccc2c(c1)CN(C(=O)c1cccc(N3CCCCC3)c1)CC2,–,–,–
94.3,64.8,CCCN(Cc1ccccc1)c1ccc(C(=O)N2CCc3ccc(OS(N)(=O)=O)cc3C2)cc1,–,–,–
20.9,0,NS(=O)(=O)Oc1ccc2c(c1)CN(C(=O)c1cccc(N3CCOCC3)c1)CC2,–,–,–
90.5,27.5,NS(=O)(=O)Oc1ccc2c(c1)CN(C(=O)c1cccc(N(Cc3ccccc3)Cc3ccco3)c1)CC2,–,–,–
26.8,0.3,CN(CCN1CCCCC1)c1ccc(C(=O)N2CCc3ccc(OS(N)(=O)=O)cc3C2)cc1,–,–,–
90.8,47,CC(C)CCN(CCC(C)C)c1ccc(C(=O)N2CCc3ccc(OS(N)(=O)=O)cc3C2)cc1,–,–,–
39.6,2.3,NS(=O)(=O)Oc1ccc2c(c1)CN(C(=O)c1cccc(N3CCSCC3)c1)CC2,–,–,–
37.3,25.8,NS(=O)(=O)Oc1ccc2c(c1)CN(C(=O)c1cccc(N(CCCO)Cc3ccccc3)c1)CC2,–,–,–
32.4,26.7,NS(=O)(=O)Oc1ccc2c(c1)CN(C(=O)c1cccc(N(CCO)Cc3ccccc3)c1)CC2,–,–,–
66.5,10.9,CCN(Cc1ccc(F)cc1)c1cccc(C(=O)N2CCc3ccc(OS(N)(=O)=O)cc3C2)c1,–,–,–

inhibition [4] [%],inhibition [5] [%],Structure (SMILES),Activity [1] [%],Activity [2] [%],Activity [3] [%]
19.9,6.5,CCN(Cc1ccccn1)c1cccc(C(=O)N2CCc3ccc(OS(N)(=O)=O)cc3C2)c1,–,–,–
85.2,35.7,CCN(Cc1cccnc1)c1ccc(C(=O)N2CCc3ccc(OS(N)(=O)=O)cc3C2)cc1,–,–,–
24.9,20.9,CCN(Cc1cccc(Br)c1)c1cccc(C(=O)N2CCc3ccc(OS(N)(=O)=O)cc3C2)c1,–,–,–
28.6,0,CN(C)CCN(Cc1ccccc1)c1cccc(C(=O)N2CCc3ccc(OS(N)(=O)=O)cc3C2)c1,–,–,–
52.8,33.3,CCN(Cc1ccncc1)c1cccc(C(=O)N2CCc3ccc(OS(N)(=O)=O)cc3C2)c1,–,–,–
87.7,42.5,CCN(Cc1ccccn1)c1ccc(C(=O)N2CCc3ccc(OS(N)(=O)=O)cc3C2)cc1,–,–,–
12.6,0,CN1CCN(c2cccc(C(=O)N3CCc4ccc(OS(N)(=O)=O)cc4C3)c2)CC1,–,–,–
69,17.3,CCN(Cc1ccccc1)c1cccc(C(=O)N2CCc3ccc(OS(N)(=O)=O)cc3C2)c1,–,–,–
40.7,17.4,CN(CCCN1CCCCC1)c1ccc(C(=O)N2CCc3ccc(OS(N)(=O)=O)cc3C2)cc1,–,–,–
15.9,3.8,CN(C)CCN(CCN(C)C)c1ccc(C(=O)N2CCc3ccc(OS(N)(=O)=O)cc3C2)cc1,–,–,–
75.9,32.3,CC(C)CCN(CCC(C)C)c1cccc(C(=O)N2CCc3ccc(OS(N)(=O)=O)cc3C2)c1,–,–,–
78,27.9,NS(=O)(=O)Oc1ccc2c(c1)CN(C(=O)c1ccc(N(CCO)Cc3ccccc3)cc1)CC2,–,–,–
61.6,16.2,CN(C)CCCN(Cc1ccccc1)c1ccc(C(=O)N2CCc3ccc(OS(N)(=O)=O)cc3C2)cc1,–,–,–
97.2,80.2,CCN(Cc1cccc(Br)c1)c1ccc(C(=O)N2CCc3ccc(OS(N)(=O)=O)cc3C2)cc1,–,–,–
26,23.8,CN(C)CCCN(Cc1ccccc1)c1cccc(C(=O)N2CCc3ccc(OS(N)(=O)=O)cc3C2)c1,–,–,–
30.8,24.5,CN(CCN1CCCCC1)c1cccc(C(=O)N2CCc3ccc(OS(N)(=O)=O)cc3C2)c1,–,–,–
64.3,5.7,NS(=O)(=O)Oc1ccc2c(c1)CN(C(=O)c1ccc(N(CCCO)Cc3ccccc3)cc1)CC2,–,–,–
